# Biological target: T1, HP1079 (Helicobacter pylori, UniProt O25711)
# T1 construct: gene HP_1079; native protein captured with GTP-coated nano-particles; His6 recombinant also made
# T1 sequence (O25711 1-370): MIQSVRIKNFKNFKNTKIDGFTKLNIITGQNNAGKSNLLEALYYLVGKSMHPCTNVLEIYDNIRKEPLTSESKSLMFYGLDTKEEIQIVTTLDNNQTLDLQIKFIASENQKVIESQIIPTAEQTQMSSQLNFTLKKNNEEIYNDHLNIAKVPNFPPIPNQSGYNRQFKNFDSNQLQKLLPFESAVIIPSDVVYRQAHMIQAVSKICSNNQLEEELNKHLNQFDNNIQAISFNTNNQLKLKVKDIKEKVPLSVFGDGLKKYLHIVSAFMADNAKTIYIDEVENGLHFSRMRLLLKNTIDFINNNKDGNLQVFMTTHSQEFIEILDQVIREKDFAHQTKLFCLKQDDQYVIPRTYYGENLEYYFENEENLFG
# Experiment: phosphate release, malachite green
# Format: biochemical
# Conditions: 10 mM MgCl2, 10% glycerol, 100 mM sodium acetate pH 6.0, 30°C; read-out: Km (mM)^bc
# Excerpt: phosphate release, malachite green on HP1079
compound,measurement,value
Nc1ncnc2c1ncn2[C@@H]1O[C@H](COP(=O)(O)OP(=O)(O)OP(=O)(O)O)[C@@H](O)[C@H]1O [ATP],Km,1.02 ± 0.05 mM
